Experimental data reported in patent US11484501B2, “Mechanochemical activated dry amorphisation by milling equilibrium between ap mesoporous silica” (priority 2015, dated 2022).

Experiment: Amorphonisation of co-milled drug by X-ray diffraction and DSC
Type: physicochemical
Details: vibration ball mill
Procedure: Amorphonisation of co-milled IBU was confirmed by DSC and X-RD study. Drug release studies were conducted by and using USP Dissolution apparatus II and media (e.g., acetate buffer) of pH 4.5. Formation of hydrogen bond between silanol groups of SYLOID® silica and functional groups of IBU were believe to be the key to drug amorphonisation in the co-milling process. To confirm the IBU amorphonisation, X-ray diffraction study (XRD) was conducted. […] Additionally, DSC studies were conducted to understand the amorphonisation and possible interaction between silanol groups of SYLOID® silica and IBU. DSC thermograms, shown in FIGS. 5A-5B, confirmed both change in enthalpy and symmetry of peak shape.

- amorphonisation of the crystalline drug into an amorphous state by (co-)milling: does not result in an amorphous form
Compound: CC(C)Cc1ccc(C(C)C(=O)O)cc1 (stereo not shown) [IBU, ibuprofen]
